Source: ChEMBL document CHEMBL2021911 (Bioorg Med Chem Lett, 2012)

Key:
[1] = target: T1, Muscarinic acetylcholine receptor M1 (Homo sapiens, UniProt P11229); experiment: Agonist activity at human muscarinic M1 receptor; type: functional
T1 sequence (P11229 whole entry): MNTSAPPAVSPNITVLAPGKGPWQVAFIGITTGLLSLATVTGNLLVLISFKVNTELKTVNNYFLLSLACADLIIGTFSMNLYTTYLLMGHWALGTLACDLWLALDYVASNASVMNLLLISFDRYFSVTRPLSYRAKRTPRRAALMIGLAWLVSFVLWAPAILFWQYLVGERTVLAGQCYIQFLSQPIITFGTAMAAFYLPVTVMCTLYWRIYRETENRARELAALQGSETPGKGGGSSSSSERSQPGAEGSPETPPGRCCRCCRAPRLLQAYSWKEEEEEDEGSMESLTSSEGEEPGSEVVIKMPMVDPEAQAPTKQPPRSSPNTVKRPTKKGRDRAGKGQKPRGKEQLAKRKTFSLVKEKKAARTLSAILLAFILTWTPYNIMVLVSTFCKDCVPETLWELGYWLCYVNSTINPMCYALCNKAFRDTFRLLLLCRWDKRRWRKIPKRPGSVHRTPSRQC

[2] = target: T2, Muscarinic acetylcholine receptor M1 (Homo sapiens) (UniProt P11229); experiment: Agonist activity at human muscarinic M1 receptor at 30 uM relative to acetylcholine; type: functional
T2 sequence (whole entry): T1 sequence (P11229 whole entry)

Row | Structure (SMILES) | EC50 ([1]; read-out: EC50) [nM] | Activity [2] [%] | EC50 [1]
1 | CCOC(=O)N1[C@@H]2CC[C@H]1C[C@H](NCCNC(=O)c1ccncc1)C2 | > 10000 | 6 | –
2 | CN(C)C(=O)N1[C@@H]2CC[C@H]1C[C@H](NCCNC(=O)c1ccccc1)C2 | – | – | Not Active
3 | COC(=O)C12CCC(NCCNC(=O)c3ccccc3)(CC1)CC2 | 6200 | 18 | –
4 | CCOC(=O)N1[C@@H]2CC[C@H]1C[C@H](NCCNC(=O)N1CCOCC1)C2 | 2000 | 44 | –
5 | CCOC(=O)N1C[C@H]2CC[C@@H](C1)[C@H]2NCCNC(=O)c1cc(F)cc(F)c1 | 200 | 53 | –
6 | CCOC(=O)N1[C@@H]2CC[C@H]1C[C@H](NCCNC(=O)c1cccc(Cl)c1)C2 | 440 | 63 | –
7 | CCCC(=O)N1[C@@H]2CC[C@H]1C[C@H](NCCNC(=O)c1ccccc1)C2 | – | – | Not Active
8 | CCOC(=O)N1[C@@H]2CC[C@H]1CC(NCCNC(=O)c1ccc(C)c(F)c1)C2 (mixture of isomers) | 470 | 40 | –
9 | CCOC(=O)N1C[C@@H]2C(NCCNC(=O)c3ccccc3C)[C@@H]2C1 (stereo partly specified) | 4100 | 60 | –
10 | CCOC(=O)N1C2CCC1CC(N1CC[C@H](NC(=O)c3ccccc3C)C1)C2 (mixture of isomers) | > 10000 | 22 | –
11 | CCOC(=O)N1C2CCC1CC(N1CC(NC(=O)c3ccccc3)C1)C2 (mixture of isomers) | 2200 | 34 | –
12 | CCOC(=O)N1[C@@H]2CC[C@H]1C[C@H](NCCNC(=O)c1ccccc1C)C2 | 1100 | 47 | –
13 | CCOC(=O)N1[C@@H]2CC[C@H]1C[C@H](NCCNC(=O)c1ccc(F)c(F)c1)C2 | 810 | 50 | –
14 | CCC(=O)N1[C@@H]2CC[C@H]1C[C@H](NCCNC(=O)c1ccccc1)C2 | – | – | Not Active
15 | O=C(NCCN[C@@H]1C[C@H]2CC[C@@H](C1)N2C(=O)Oc1ccccc1)c1ccccc1 | – | – | Not Active
16 | CCOC(=O)N1C2CCC1CC(N1CCC[C@H](NC(=O)c3ccccc3)C1)C2 (mixture of isomers) | > 10000 | 12 | –
17 | O=C(NCCN[C@@H]1C[C@H]2CC[C@@H](C1)N2C(=O)OCc1ccccc1)c1ccccc1 | > 10000 | 7 | –
18 | CCOC(=O)N1C[C@H]2CC[C@@H](C1)[C@H]2NCCNC(=O)c1cccc(OC)c1 | 240 | 47 | –
19 | CCOC(=O)N1[C@@H]2CC[C@H]1C[C@H](NCCNC(=O)c1cccs1)C2 | 1000 | 33 | –
20 | CCOC(=O)N1C2CCC1CC(N1CCC[C@H](NC(=O)c3ccccc3C)C1)C2 (mixture of isomers) | 2100 | 52 | –
21 | CCOC(=O)N1CC[C@H]2[C@@H](CCCN2CCNC(=O)c2ccccc2)C1 (relative stereo) | 3200 | 13 | –
22 | CCOC(=O)N1[C@@H]2CC[C@H]1C[C@H](NCCNC(=O)N1CCCC1)C2 | > 10000 | 11 | –
23 | CCOC(=O)N1[C@@H]2CC[C@H]1C[C@H](NCCNC(=O)NC1CC1)C2 | – | – | Not Active
24 | CCOC(=O)N1[C@@H]2CC[C@H]1C[C@H](NCCNS(=O)(=O)c1cccc(OC)c1)C2 | – | – | Not Active

Row | Structure (SMILES) | EC50 ([1]; read-out: EC50) [nM] | Activity [2] [%] | EC50 [1]
25 | CCOC(=O)N1[C@@H]2CC[C@H]1C[C@H](NCCNC(=O)c1cccc(OC)c1)C2 | 3600 | 33 | –
26 | CCOC(=O)N1[C@@H]2CC[C@H]1C[C@H](NCCNC(=O)c1ccccc1C(F)(F)F)C2 | – | – | Not Active
27 | CCOC(=O)N1[C@@H]2CC[C@H]1C[C@H](NCCNC(=O)c1ccc[nH]1)C2 | – | – | Not Active
28 | CCOC(=O)N1[C@@H]2CC[C@H]1C[C@H](NCCNC(=O)C1CCCCC1)C2 | 1500 | 34 | –
29 | CC(C)C(=O)N1[C@@H]2CC[C@H]1C[C@H](NCCNC(=O)c1ccccc1)C2 | 5400 | 23 | –
30 | CCOC(=O)N1CCC(N2CCC[C@@H](NC(=O)c3ccccc3C)C2)CC1 | 890 | 71 | –
31 | C=CCOC(=O)N1[C@@H]2CC[C@H]1C[C@H](NCCNC(=O)c1ccccc1)C2 | 2000 | 40 | –
32 | CCOC(=O)N1C[C@H]2CC[C@@H](C1)[C@H]2NCCNC(=O)C1CCCCC1 | 1000 | 37 | –
33 | CCOC(=O)N1[C@@H]2CC[C@H]1C[C@H](NCCNC(=O)c1cc(F)cc(F)c1)C2 | 1900 | 43 | –
34 | CCOC(=O)N1C2CCC1CC(N1CC[C@H](NC(=O)c3ccccc3)C1)C2 (mixture of isomers) | 1200 | 39 | –
35 | CCOC(=O)N1C2CCC1CC(N1CC[C@@H](NC(=O)c3ccccc3)C1)C2 (mixture of isomers) | 320 | 62 | –
36 | CCS(=O)(=O)N1[C@@H]2CC[C@H]1C[C@H](NCCNC(=O)c1ccccc1)C2 | – | – | Not Active
37 | CCOC(=O)N1C[C@H]2CC[C@@H](C1)[C@H]2NCCNC(=O)N1CCCCC1 | 690 | 9 | –
38 | CCOC(=O)N1CC[C@H]2[C@H](CCCN2CCNC(=O)c2ccccc2)C1 (relative stereo) | 1200 | 13 | –
39 | COC(=O)N1[C@@H]2CC[C@H]1C[C@H](NCCNC(=O)c1ccccc1)C2 | > 10000 | 21 | –
40 | CCOC(=O)N1C[C@H]2CC[C@@H](C1)[C@H]2NCCNC(=O)c1cccs1 | 170 | 54 | –
41 | CCOC(=O)N1[C@@H]2CC[C@H]1C[C@H](NCCNC(=O)c1ccccc1Cl)C2 | 2300 | 37 | –
42 | CS(=O)(=O)N1[C@@H]2CC[C@H]1C[C@H](NCCNC(=O)c1ccccc1)C2 | – | – | Not Active
43 | CCOC(=O)N1C[C@H]2CC[C@@H](C1)[C@H]2NCCNC(=O)c1ccccc1C | 170 | 51 | –
44 | CCOC(=O)N1C2CCC1CC(N1CC[C@@H](NC(=O)c3ccccc3C)C1)C2 (mixture of isomers) | 1200 | 55 | –
45 | CCOC(=O)N1C[C@H]2CC[C@@H](C1)[C@H]2NCCNC(=O)N1CCOCC1 | > 10000 | 11 | –
46 | CCOC(=O)N1[C@@H]2CC[C@H]1C[C@H](NCCNC(=O)c1ccc(F)cc1)C2 | 830 | 54 | –
47 | CCOC(=O)N1[C@@H]2CC[C@H]1C[C@H](NCCNC(=O)N1CCCCC1)C2 | 570 | 53 | –
48 | CCOC(=O)N1[C@@H]2CC[C@H]1C[C@H](NCCNC(=O)N1[C@H](C)CCC[C@@H]1C)C2 | 2500 | 39 | –
